{
  "source": "patent US20110033944A1",
  "about": "“METHOD FOR MEASURING HYPOCHLORITE ION” (SEKISUI MEDICAL CO., LTD., priority 2003, published 2011)",
  "key": {"[1]": {"assay": "Reactivity of fluorescence probe to hydroxyl radical (H2O2 / ferrous perchlorate)", "format": "physicochemical", "conditions": "10 μM probe, H2O2 1 mM + ferrous perchlorate 100 μM, pH 7.4, room temperature", "procedure": "(§1) In the following example, a compound wherein R^1 is 2-carboxyphenyl group, and R^2 is 4-aminophenyl group in the general formula (I) (hereinafter referred to as “APF”) and a compound wherein R^3 is 2-carboxyphenyl group, and R^4 is 4-hydroxyphenyl group in the general formula (II) (hereinafter referred to as “HPF”) were used. Each of HPF and APF is dissolved in dimethylformamide (DMF) to obtain a 10 mM solution, and then added with a 100 mM sodium phosphate buffer (pH 7.4) to obtain a final concentration of 10 μM, unless otherwise specifically mentioned.\n(§2) Excitation spectra and fluorescence spectra were analyzed with Hitachi F4500. The slit width was 2.5 nm in both of the excitation spectra and fluorescence spectra. The photomultiplier voltage was 950 V. Unless otherwise specifically mentioned, excitation wavelength was 490 nm, fluorescence wavelength was 515 nm, and the measurement was performed at 37° C.\n(§3) Reactivities of APF and HPF to various reactive species containing oxygen were studied. […] The measurement was performed with excitation wavelength at 500 nm and with fluorescence wavelength at 520 nm for DCFH.\nA 10 μM fluorescence probe solution was added with an aqueous hydrogen peroxide solution (a final concentration of 1 mM), and further slowly added with an aqueous ferrous perchlorate (a final concentration of 100 μM). […]"}, "[2]": {"assay": "Reactivity of fluorescence probe to hypochlorite ion (sodium hypochlorite)", "format": "physicochemical", "conditions": "10 μM probe, sodium hypochlorite 1.0 μM, pH 7.4, 37° C.", "procedure": "as §1, §2, §3\nA 10 μM fluorescence probe solution was put in a fluorescence cell, added with an aqueous sodium hypochlorite solution (a final concentration of 1.0 μM). Fluorescence intensities before and after the addition of an aqueous sodium hypochlorite solution were measured."}, "[3]": {"assay": "Reactivity of fluorescence probe to singlet oxygen (EP-1)", "format": "physicochemical", "conditions": "10 μM probe, EP-1 100 μM, pH 7.4, 37° C.", "procedure": "as §1, §2, §3\nA 10 μM fluorescence probe solution was put in a fluorescence cell, added with 3-(1,4-dihydro-1,4-epidioxy-1-naphthyl)propionic acid (EP-1; a final concentration of 100 μM), and was reacted for 30 minutes. […]"}, "[4]": {"assay": "Reactivity of fluorescence probe to superoxide (KO2)", "format": "physicochemical", "conditions": "10 μM probe, KO2 100 μM, pH 7.4, 37° C.", "procedure": "as §1, §2, §3\nA 10 μM fluorescence probe solution was put in a fluorescence cell, added with KO2 (a final concentration of 100 μM), and was reacted for 30 minutes. Fluorescence intensities before the addition of KO2 and 30 minutes after the addition were measured."}, "[5]": {"assay": "Reactivity of fluorescence probe to hydrogen peroxide", "format": "physicochemical", "conditions": "10 μM probe, H2O2 100 μM, pH 7.4, 37° C.", "procedure": "as §1, §2, §3\nA 10 μM fluorescence probe solution was put in a fluorescence cell, added with H2O2 (a final concentration of 100 μM), and was reacted for 30 minutes. Fluorescence intensities before the addition of H2O2 and 30 minutes after the addition were measured."}, "[6]": {"assay": "Reactivity of fluorescence probe to nitric oxide (NOC13)", "format": "physicochemical", "conditions": "10 μM probe, NOC13 100 μM, pH 7.4, 37° C.", "procedure": "as §1, §2, §3\nA 10 μM fluorescence probe solution was put in a fluorescence cell, added with 1-hydroxy-2-oxo-3-(3-aminopropyl)-3-ethyl-1-triazine (NOC13; a final concentration of 100 μM), and was reacted for 30 minutes. […]"}, "Myeloperoxidase (human)": {"tested_on": "Myeloperoxidase (human)", "assay": "Myeloperoxidase/H2O2 system, fluorescence measurement of generated hypochlorite ion", "format": "biochemical", "conditions": "10 μM probe, myeloperoxidase 11.2 nM, 150 mM NaCl, 37° C.", "procedure": "as §1, §2\n(A) By using a 100 mM sodium phosphate buffer (pH 7.4) containing 150 mM sodium chloride, a 10 μM HPF solution and a 10 μM APF solution were prepared. Myeloperoxidase (human) were added to these solutions to obtain a final concentration of 11.2 nM. Each of the solution was put in each fluorescence cell, and a change in the fluorescence intensity with passage of time was measured. The temperature of the solutions were set at 37° C. […]"}, "neutrophils": {"tested_on": "neutrophils", "assay": "Fluorescence imaging of PMA-stimulated neutrophils", "format": "cell-based, porcine", "conditions": "10 μM probe, PMA 2 ng/mL, excitation 488 nm, emission 505-550 nm", "procedure": "According to the method described in Wakeyama, H., Takeshige, K., Takayanagi, R., and Minakami S. (1982) Biochem. J. 205, 593-601 and Kakinuma, K., Kaneda, M., Chiba, T., and Ohnishi, T. (1986) J. Biol. Chem. 261, 9426-9432, neutrophils were obtained from 1.8 liters of porcine blood. Erythrocytes in the buffy coat collected from the blood were hemolyzed with a large volume of an ice-cooled 0.2% aqueous sodium chloride solution for […] and then the preparation was promptly mixed with an equal volume of a 1.6% aqueous sodium chloride solution to restore the isotonic condition. Neutrophils were separated from platelets and mononuclear cells by the Conrey-Ficoll method. The neutrophils were suspended in Krebs Ringer phosphate buffer (114 mM NaCl, 4.6 mM KCl, 2.4 mM MgSO4, 1.0 mM, CaCl2, 15 mM NaH2PO4/Na2HPO4, pH7.4).\nThe separated neutrophils were seeded onto a glass-bottomed dish. Then the cells were loaded with HPF or APF (10 μM) after incubation for 30 minutes at room temperature. These neutrophils were stimulated with 4β-phorbol-12-myristate-13-acetate (PMA)(2 ng/mL). Fluorescence imaging was measured twice in each experiment: one is before and the other is 10 minutes after the stimulation with PMA. […]"}},
  "data": [
    {"molecule": "O=C(O)c1ccccc1C1c2cc(Cl)c(O)cc2Oc2cc(O)c(Cl)cc21", "note": "[DCFH, 2′,7′-dichlorodihydrofluorescein, reference compound]", "values": [
      {"measurement": "Reactivity to hydroxyl radical (fluorescence intensity before and after addition)", "setting": "[1]", "result": 7400},
      {"measurement": "Reactivity to hypochlorite ion (fluorescence intensity before and after addition)", "setting": "[2]", "result": 86},
      {"measurement": "Reactivity to singlet oxygen (fluorescence intensity before and 30 minutes after addition)", "setting": "[3]", "result": 26},
      {"measurement": "Reactivity to superoxide (fluorescence intensity before and 30 minutes after addition)", "setting": "[4]", "result": 67},
      {"measurement": "Reactivity to hydrogen peroxide (fluorescence intensity before and 30 minutes after addition)", "setting": "[5]", "result": 190},
      {"measurement": "Reactivity to nitric oxide (fluorescence intensity before and 30 minutes after addition)", "setting": "[6]", "result": 150}
    ]},
    {"molecule": "Nc1ccc(Oc2ccc3c(-c4ccccc4C(=O)O)c4ccc(=O)cc-4oc3c2)cc1", "note": "[APF]", "values": [
      {"measurement": "Reactivity to singlet oxygen (fluorescence intensity before and 30 minutes after addition)", "setting": "[3]", "result": 9},
      {"measurement": "Reactivity to superoxide (fluorescence intensity before and 30 minutes after addition)", "setting": "[4]", "result": 6},
      {"measurement": "Reactivity to hydrogen peroxide (fluorescence intensity before and 30 minutes after addition)", "setting": "[5]", "result": "<1"},
      {"measurement": "Reactivity to nitric oxide (fluorescence intensity before and 30 minutes after addition)", "setting": "[6]", "result": "<1"},
      {"measurement": "Change in fluorescence intensity with time on addition of hydrogen peroxide (FIG. 1(A))", "setting": "Myeloperoxidase (human); H2O2 1 μM", "result": "a significant increase in the fluorescence intensity was observed"},
      {"measurement": "Increase in fluorescence intensity before and after addition of hydrogen peroxide (FIG. 1(B))", "setting": "Myeloperoxidase (human); H2O2 0.1-1.0 μM, 5 minutes", "result": "fluorescence intensity was increased in a manner dependent on the concentration of the added hydrogen peroxide"},
      {"measurement": "Fluorescence intensity of probe-loaded neutrophils before and 10 minutes after stimulation with PMA", "setting": "neutrophils", "result": "a significant increase was observed in fluorescence intensity"}
    ]}
  ]
}
